Reference: patent US20260001928A1 (CORTERIA PHARMACEUTICALS, priority 2022, published 2026)
*1 amine or outer side, *2 acyl side, *3 side chain or, on linkers, in order; H or OH if unused. Where a SMILES comes first, the peptide text is derived from it. Side-chain parts run from the residue outwards. [ ]: non-standard residue; d: D form. The star is where a group is joined. C16 diacid = O=C(O)CCCCCCCCCCCCCCC(=O)*; γGlu = O=C(O)[C@H](CCC(=O)[*:2])N[*:1]; αMeL = CC(C)C[C@](C)(N)C(=O)O; Aib = CC(C)(N)C(=O)O

How the values were obtained:
human CRF2a receptor = biological target: T1, human CRF2a receptor (Homo sapiens, UniProt Q13324); assay: Activity at human CRF2a receptor, cAMP functional assay in TeloHEAC cells; type: cell-based; settings: TeloHEAC cells stably expressing human CRF2a receptor, relative to urocortin 2 (100 nM = 100%)
T1 construct: expressed in transfected cells; host or cells: TeloHEAC cells
T1 sequence (Q13324 1-411): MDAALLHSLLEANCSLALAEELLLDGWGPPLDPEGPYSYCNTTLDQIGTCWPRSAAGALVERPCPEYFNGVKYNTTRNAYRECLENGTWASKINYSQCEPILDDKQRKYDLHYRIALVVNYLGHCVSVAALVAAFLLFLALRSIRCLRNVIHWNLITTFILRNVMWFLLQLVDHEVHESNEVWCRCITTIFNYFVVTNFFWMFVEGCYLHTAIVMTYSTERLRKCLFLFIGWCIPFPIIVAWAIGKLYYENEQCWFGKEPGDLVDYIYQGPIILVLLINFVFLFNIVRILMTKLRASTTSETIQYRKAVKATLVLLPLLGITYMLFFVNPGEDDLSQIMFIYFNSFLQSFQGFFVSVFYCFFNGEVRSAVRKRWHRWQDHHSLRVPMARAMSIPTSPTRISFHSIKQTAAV
Summary of the method: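 TeloHEAC cells stably expressing human CRF2a (10000 cells/well) were treated with 16-point 1:2 compound dilutions in HBSS/20 mM HEPES with IBMX for 30 min at 37° C. cAMP was read by HTRF (665/620 nm ratio). EC50 was the concentration giving 50% activation, with 100 nM urocortin 2 set as 100%.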

CFR1R receptor = biological target: T2, CFR1R receptor (Homo sapiens, UniProt P34998); assay: Activity at anti-target CFR1R receptor, cAMP assay in CRF1R-overexpression CHO-K1 cells; type: cell-based; settings: 100% = Sauvagine at 100 nM; for EC50: cAMP
T2 construct: host or cells: CHO-K1 (clone 2)
T2 sequence (P34998 24-415): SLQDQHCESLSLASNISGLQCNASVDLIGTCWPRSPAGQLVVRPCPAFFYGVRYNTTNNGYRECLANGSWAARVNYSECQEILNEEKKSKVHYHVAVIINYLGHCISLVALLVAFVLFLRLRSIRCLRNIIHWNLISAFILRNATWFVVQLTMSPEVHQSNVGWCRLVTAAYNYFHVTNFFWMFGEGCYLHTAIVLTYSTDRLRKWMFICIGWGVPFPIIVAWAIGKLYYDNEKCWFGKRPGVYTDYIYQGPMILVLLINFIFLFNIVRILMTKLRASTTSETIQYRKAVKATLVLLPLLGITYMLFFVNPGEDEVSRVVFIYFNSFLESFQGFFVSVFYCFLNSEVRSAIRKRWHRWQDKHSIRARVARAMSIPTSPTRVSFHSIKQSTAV
Summary of the method: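 Clone 2 cells were cultured in F12 (Hams)/10% FBS/400 μg/ml G418 at 37° C./5% CO2, frozen in medium with 10% DMSO, and thawed vials used. The protocol followed the TeloHAEC procedure, with 4000 cells/well final and Sauvagine at 100 nM defining 100% activation.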

SMILES | EC50 (human CRF2a receptor) [nM] | Emax (% I) (CFR1R receptor) | EC50 (CFR1R receptor) [nM]
CC[C@H](C)[C@H](NC(=O)[C@H](CCC(N)=O)NC(=O)C(C)(C)NC(=O)[C@H](CC(N)=O)NC(=O)[C@@H](NC(=O)[C@H](CCC(=O)O)NC(=O)[C@H](C)NC(=O)[C@H](CCC(N)=O)NC(=O)[C@H](CCC(=O)O)NC(=O)[C@H](CCCNC(=N)N)NC(=O)[C@H](CCC(N)=O)NC(=O)[C@H](CCCCN)NC(=O)[C@H](CCCCN)NC(=O)[C@H](CCC(N)=O)NC(=O)[C@H](CCCCN)NC(=O)[C@H](CCC(=O)O)NC(=O)[C@H](CCC(N)=O)NC(=O)[C@H](CCC(=O)O)NC(=O)[C@H](CC(C)C)NC(=O)[C@H](CC(C)C)NC(=O)[C@@H](NC(=O)[C@H](CCCCN)NC(=O)[C@H](CCCCNC(=O)CC[C@H](NC(=O)CCCCCCCCCCCCCCC(=O)O)C(=O)O)NC(=O)[C@](C)(CC(C)C)NC(=O)[C@H](CCCCN)NC(=O)[C@@H](NC(=O)[C@@H]1CCCN1C(=O)[C@H](NC(=O)[C@H](CC(=O)O)NC(=O)[C@H](CC(C)C)NC(=O)[C@H](CO)NC(=O)[C@H](CC(C)C)NC(=O)[C@@H](NC(C)=O)C(C)C)C(C)C)[C@@H](C)CC)[C@@H](C)CC)[C@@H](C)O)C(=O)N[C@@H](CC(C)C)C(=O)N[C@@H](C)C(=O)N[C@@H](CCC(N)=O)C(=O)N[C@H](C(N)=O)C(C)C [compound 46] (Ac-VLSLD[dV]PIK[αMeL]K([γGlu-C16 diacid])KILLEQEKQKKQREQAETN[Aib]QILAQV-NH2) | 0.7 | 6 | > 250
CC[C@H](C)[C@H](NC(C)=O)C(=O)N[C@H](C(=O)N[C@@H](CC(C)C)C(=O)N[C@@H](CO)C(=O)N[C@@H](CC(C)C)C(=O)N[C@@H](CC(=O)O)C(=O)N[C@@H](C(=O)N1CCC[C@H]1C(=O)N[C@H](C(=O)N[C@@H](CCCCN)C(=O)N[C@@H](CC(C)C)C(=O)N[C@@H](CCCCNC(=O)CC[C@H](NC(=O)CCCCCCCCCCCCCCC(=O)O)C(=O)O)C(=O)N[C@@H](CCCCN)C(=O)N[C@H](C(=O)N[C@@H](CC(C)C)C(=O)N[C@@H](CC(C)C)C(=O)N[C@@H](CCC(=O)O)C(=O)N[C@@H](CCC(N)=O)C(=O)N[C@@H](CCC(=O)O)C(=O)N[C@@H](CCCCN)C(=O)N[C@@H](CCC(N)=O)C(=O)N[C@@H](CCCCN)C(=O)N[C@@H](CCCCN)C(=O)N[C@@H](CCC(N)=O)C(=O)N[C@@H](CCCNC(=N)N)C(=O)N[C@@H](CCC(=O)O)C(=O)N[C@@H](CCC(N)=O)C(=O)N[C@@H](C)C(=O)N[C@@H](CCC(=O)O)C(=O)N[C@H](C(=O)N[C@@H](CC(N)=O)C(=O)N[C@H](C(=O)N[C@@H](CCC(N)=O)C(=O)N[C@H](C(=O)N[C@@H](CC(C)C)C(=O)N[C@@H](C)C(=O)N[C@@H](CCC(N)=O)C(=O)N[C@H](C(N)=O)C(C)C)[C@@H](C)CC)C(C)C)[C@@H](C)O)[C@@H](C)CC)[C@@H](C)CC)C(C)C)C(C)C [compound 48] (Ac-IVLSLD[dV]PIKLK([γGlu-C16 diacid])KILLEQEKQKKQREQAETNVQILAQV-NH2) | 1.35 | 4 | > 250

More lines, now with the values ahead:

EC50 (human CRF2a receptor) [nM] | Emax (% I) (CFR1R receptor) | EC50 (CFR1R receptor) [nM] | SMILES
0.25 | 5 | > 250 | CC[C@H](C)[C@H](NC(C)=O)C(=O)N[C@H](C(=O)N[C@@H](CC(C)C)C(=O)N[C@@H](CO)C(=O)N[C@@H](CC(C)C)C(=O)N[C@@H](CC(=O)O)C(=O)N[C@@H](C(=O)N1CCC[C@H]1C(=O)N[C@H](C(=O)N[C@@H](CCCCN)C(=O)N[C@@](C)(CC(C)C)C(=O)N[C@@H](CCCCNC(=O)CC[C@H](NC(=O)CCCCCCCCCCCCCCC(=O)O)C(=O)O)C(=O)N[C@@H](CCCCN)C(=O)N[C@H](C(=O)N[C@@H](CC(C)C)C(=O)N[C@@H](CC(C)C)C(=O)N[C@@H](CCC(=O)O)C(=O)N[C@@H](CCC(N)=O)C(=O)N[C@@H](CCC(=O)O)C(=O)N[C@@H](CCCCN)C(=O)N[C@@H](CCC(N)=O)C(=O)N[C@@H](CCCCN)C(=O)N[C@@H](CCCCN)C(=O)N[C@@H](CCC(N)=O)C(=O)N[C@@H](CCCNC(=N)N)C(=O)N[C@@H](CCC(=O)O)C(=O)N[C@@H](CCC(N)=O)C(=O)N[C@@H](C)C(=O)N[C@@H](CCC(=O)O)C(=O)N[C@H](C(=O)N[C@@H](CC(N)=O)C(=O)NC(C)(C)C(=O)N[C@@H](CCC(N)=O)C(=O)N[C@H](C(=O)N[C@@H](CC(C)C)C(=O)N[C@@H](C)C(=O)N[C@@H](CCC(N)=O)C(=O)N[C@H](C(N)=O)C(C)C)[C@@H](C)CC)[C@@H](C)O)[C@@H](C)CC)[C@@H](C)CC)C(C)C)C(C)C [compound 44] (Ac-IVLSLD[dV]PIK[αMeL]K([γGlu-C16 diacid])KILLEQEKQKKQREQAETN[Aib]QILAQV-NH2)
0.96 | 5 | > 250 | CC[C@H](C)[C@H](NC(=O)[C@H](CCC(N)=O)NC(=O)C(C)(C)NC(=O)[C@H](CC(N)=O)NC(=O)[C@@H](NC(=O)[C@H](CCC(=O)O)NC(=O)[C@H](C)NC(=O)[C@H](CCC(N)=O)NC(=O)[C@H](CCC(=O)O)NC(=O)[C@H](CCCNC(=N)N)NC(=O)[C@H](CCC(N)=O)NC(=O)[C@H](CCCCN)NC(=O)[C@H](CCCCN)NC(=O)[C@H](CCC(N)=O)NC(=O)[C@H](CCCCN)NC(=O)[C@H](CCC(=O)O)NC(=O)[C@H](CCC(N)=O)NC(=O)[C@H](CCC(=O)O)NC(=O)[C@H](CC(C)C)NC(=O)[C@H](CC(C)C)NC(=O)[C@@H](NC(=O)[C@H](CCCCN)NC(=O)[C@H](CCCCNC(=O)CC[C@H](NC(=O)CCCCCCCCCCCCCCC(=O)O)C(=O)O)NC(=O)[C@H](CC(C)C)NC(=O)[C@H](CCCCN)NC(=O)[C@@H](NC(=O)[C@@H]1CCCN1C(=O)[C@H](NC(=O)[C@H](CC(=O)O)NC(=O)[C@H](CC(C)C)NC(=O)[C@H](CO)NC(=O)[C@H](CC(C)C)NC(=O)[C@@H](NC(C)=O)C(C)C)C(C)C)[C@@H](C)CC)[C@@H](C)CC)[C@@H](C)O)C(=O)N[C@@H](CC(C)C)C(=O)N[C@@H](C)C(=O)N[C@@H](CCC(N)=O)C(=O)N[C@H](C(N)=O)C(C)C [compound 45] (Ac-VLSLD[dV]PIKLK([γGlu-C16 diacid])KILLEQEKQKKQREQAETN[Aib]QILAQV-NH2)
0.92 | −3 | > 250 | CC[C@H](C)[C@H](NC(C)=O)C(=O)N[C@H](C(=O)N[C@@H](CC(C)C)C(=O)N[C@@H](CO)C(=O)N[C@@H](CC(C)C)C(=O)N[C@@H](CC(=O)O)C(=O)N[C@H](C(=O)N1CCC[C@H]1C(=O)N[C@H](C(=O)N[C@@H](CCCCN)C(=O)N[C@@](C)(CC(C)C)C(=O)N[C@@H](CCCCNC(=O)CC[C@H](NC(=O)CCCCCCCCCCCCCCC(=O)O)C(=O)O)C(=O)N[C@@H](CCCCN)C(=O)N[C@H](C(=O)N[C@@H](CC(C)C)C(=O)N[C@@H](CC(C)C)C(=O)N[C@@H](CCC(=O)O)C(=O)N[C@@H](CCC(N)=O)C(=O)N[C@@H](CCC(=O)O)C(=O)N[C@@H](CCCCN)C(=O)N[C@@H](CCC(N)=O)C(=O)N[C@@H](CCCCN)C(=O)N[C@@H](CCCCN)C(=O)N[C@@H](CCC(N)=O)C(=O)N[C@@H](CCCNC(=N)N)C(=O)N[C@@H](CCC(=O)O)C(=O)N[C@@H](CCC(N)=O)C(=O)N[C@@H](C)C(=O)N[C@@H](CCC(=O)O)C(=O)N[C@H](C(=O)N[C@@H](CC(N)=O)C(=O)N[C@H](C(=O)N[C@@H](CCC(N)=O)C(=O)N[C@H](C(=O)N[C@@H](CC(C)C)C(=O)N[C@@H](C)C(=O)N[C@@H](CCC(N)=O)C(=O)N[C@H](C(N)=O)C(C)C)[C@@H](C)CC)C(C)C)[C@@H](C)O)[C@@H](C)CC)[C@@H](C)CC)C(C)C)C(C)C [compound 49] (Ac-IVLSLDVPIK[αMeL]K([γGlu-C16 diacid])KILLEQEKQKKQREQAETNVQILAQV-NH2)
